Reference: patent US20250034136A1 (Nimbus Wadjet, Inc., priority 2023, published 2025)
pEC50, pIC50: −log10 of the molar value. Blank lines part the entries; values can stand above or below the compound they belong to.

Tests used:
[1] = system: p21 induction in HCT116 cells; assay: p21 induction in HCT116 cells; type: cell-based; conditions: Homo sapiens, HCT-116, 24 h, HCT116 cells, 24 h compound incubation; read-out: P21_EC50
Procedure, shortened: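 HCT116 cells, 2,000/well, treated 24 h at 37 °C with 11-point compound dilutions in duplicate. Fixed, then immunostained for p21 and GAPDH and read by near-IR imaging at 800/700 nm. Normalized to DMSO (low) and reference WRN inhibitor (high) controls; EC50 from non-linear regression.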

[2] = target: WRN (BV08), human Werner helicase (Uniprot Q14191, amino acids 517-1235 with L1074F point mutation) (Homo sapiens (Human), UniProt Q14191, L1074F); assay: WRN (BV08) ADP-Glo assay; type: biochemical; conditions: class symbols A-E, read-out: ADP-Glo_hWRN_IC50
Sequence of WRN (BV08), human Werner helicase (Uniprot Q14191, amino acids 517-1235 with L1074F point mutation) (Q14191 other isoform, or with tags, fused parts or gaps L1074F (already in the parent)): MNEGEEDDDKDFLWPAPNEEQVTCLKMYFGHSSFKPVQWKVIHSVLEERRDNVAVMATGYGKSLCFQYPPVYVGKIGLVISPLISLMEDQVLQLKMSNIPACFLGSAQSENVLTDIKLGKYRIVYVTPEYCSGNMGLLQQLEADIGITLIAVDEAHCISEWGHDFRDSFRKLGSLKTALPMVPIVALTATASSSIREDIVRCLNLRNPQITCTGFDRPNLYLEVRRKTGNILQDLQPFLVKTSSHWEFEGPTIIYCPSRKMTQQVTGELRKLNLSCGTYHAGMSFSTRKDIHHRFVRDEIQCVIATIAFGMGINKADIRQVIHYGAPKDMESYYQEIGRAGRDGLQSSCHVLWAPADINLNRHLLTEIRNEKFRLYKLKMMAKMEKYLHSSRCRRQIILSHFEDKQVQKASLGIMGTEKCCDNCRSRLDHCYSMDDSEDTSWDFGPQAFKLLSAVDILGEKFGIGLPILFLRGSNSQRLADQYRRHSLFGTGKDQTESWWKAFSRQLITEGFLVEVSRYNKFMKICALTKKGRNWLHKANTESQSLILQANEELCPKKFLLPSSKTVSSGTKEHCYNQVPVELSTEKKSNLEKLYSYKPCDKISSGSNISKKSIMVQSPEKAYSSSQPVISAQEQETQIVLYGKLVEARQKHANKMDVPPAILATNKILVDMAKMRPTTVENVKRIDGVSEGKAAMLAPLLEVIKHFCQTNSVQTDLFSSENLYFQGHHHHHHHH

pEC50 [1]: < 5.30
pIC50 [2]: 7.30 to 8.30
SMILES: CCc1c(N2CCN(C(=O)c3ncnc(C)c3O)CC2)c(=O)c2nc(N(C)CCOC)cnc2n1CC(=O)Nc1ccc(C(F)(F)F)cc1Cl [I-72, N-(2-chloro-4-(trifluoromethyl)phenyl)-2-(6-ethyl-7-(4-(5-hydroxy-6-methylpyrimidine-4-carbonyl)piperazin-1-yl)-2-((2-methoxyethyl)(methyl)amino)-8-oxopyrido[2,3-b]pyrazin-5(8H)-yl)acetamide]

pEC50 [1]: < 5.30
pIC50 [2]: 7.30 to 8.30
SMILES: CCc1c(N2CCN(C(=O)c3ncnc(C)c3O)CC2)c(=O)c2nc(N(C)CCO)cnc2n1CC(=O)Nc1ccc(C(F)(F)F)cc1Cl [I-73, N-(2-chloro-4-(trifluoromethyl)phenyl)-2-(6-ethyl-7-(4-(5-hydroxy-6-methylpyrimidine-4-carbonyl)piperazin-1-yl)-2-((2-hydroxyethyl)(methyl)amino)-8-oxopyrido[2,3-b]pyrazin-5(8H)-yl)acetamide]

pEC50 [1]: 5.70 to 6.30
pIC50 [2]: 7.30 to 8.30
SMILES: CCc1c(N2CCN(C(=O)c3ncnc(C)c3O)CC2)c(=O)c2nc(N(C)CC)cnc2n1CC(=O)Nc1ccc(C(F)(F)F)cc1Cl [I-74, N-(2-chloro-4-(trifluoromethyl)phenyl)-2-(6-ethyl-2-(ethyl(methyl)amino)-7-(4-(5-hydroxy-6-methylpyrimidine-4-carbonyl)piperazin-1-yl)-8-oxopyrido[2,3-b]pyrazin-5(8H)-yl)acetamide]

pEC50 [1]: < 5.30
pIC50 [2]: 7.30 to 8.30
SMILES: CCc1c(N2CCN(C(=O)c3c(O)ccc4[nH]ncc34)CC2)c(=O)c2ncc(C)nc2n1CC(=O)Nc1ccc(C(F)(F)F)cc1Cl [I-76, N-(2-chloro-4-(trifluoromethyl)phenyl)-2-(6-ethyl-7-(4-(5-hydroxy-1H-indazole-4-carbonyl)piperazin-1-yl)-3-methyl-8-oxopyrido[2,3-b]pyrazin-5(8H)-yl)acetamide]

pEC50 [1]: < 5.30
pIC50 [2]: 7.30 to 8.30
SMILES: CCc1c(N2CCN(C(=O)c3ncnc(C)c3O)CC2)c(=O)c2nc(C#N)cnc2n1CC(=O)Nc1ccc(C(F)(F)F)cc1Cl [I-83, N-(2-chloro-4-(trifluoromethyl)phenyl)-2-(2-cyano-6-ethyl-7-(4-(5-hydroxy-6-methylpyrimidine-4-carbonyl)piperazin-1-yl)-8-oxopyrido[2,3-b]pyrazin-5(8H)-yl)acetamide]

pEC50 [1]: 5.70 to 6.30
pIC50 [2]: 7.30 to 8.30
SMILES: CCc1c(N2CCN(C(=O)c3ncnc(C)c3O)C(C)(C)C2)c(=O)c2nc(N(C)C)cnc2n1CC(=O)Nc1ccc(C(F)(F)F)cc1Cl [I-87, N-(2-chloro-4-(trifluoromethyl)phenyl)-2-(2-(dimethylamino)-6-ethyl-7-(4-(5-hydroxy-6-methylpyrimidine-4-carbonyl)-3,3-dimethylpiperazin-1-yl)-8-oxopyrido[2,3-b]pyrazin-5(8H)-yl)acetamide]

pEC50 [1]: < 5.30
pIC50 [2]: 7.30 to 8.30
SMILES: CCc1c(N2CCN(C(=O)c3ncnc(C)c3O)CC2)c(=O)c2nc(N3CC[C@H](O)C3)cnc2n1CC(=O)Nc1ccc(C(F)(F)F)cc1Cl [I-88, (S)-N-(2-chloro-4-(trifluoromethyl)phenyl)-2-(6-ethyl-7-(4-(5-hydroxy-6-methylpyrimidine-4-carbonyl)piperazin-1-yl)-2-(3-hydroxypyrrolidin-1-yl)-8-oxopyrido[2,3-b]pyrazin-5(8H)-yl)acetamide]

Continued, compound first:

SMILES: CCc1c(N2CCN(C(=O)c3ncnc(C)c3O)CC2)c(=O)c2nc(N3CC(OC)C3)cnc2n1CC(=O)Nc1ccc(C(F)(F)F)cc1Cl [I-66, N-(2-chloro-4-(trifluoromethyl)phenyl)-2-(6-ethyl-7-(4-(5-hydroxy-6-methylpyrimidine-4-carbonyl)piperazin-1-yl)-2-(3-methoxyazetidin-1-yl)-8-oxopyrido[2,3-b]pyrazin-5(8H)-yl)acetamide]
pEC50 [1]: 5.30 to 5.70
pIC50 [2]: 7.30 to 8.30

SMILES: CCc1c(N2CCN(C(=O)c3c(O)cccc3O)CC2)c(=O)c2ncc(C)nc2n1CC(=O)Nc1ccc(C(F)(F)F)cc1Cl [I-67, N-(2-chloro-4-(trifluoromethyl)phenyl)-2-(7-(4-(2,6-dihydroxybenzoyl)piperazin-1-yl)-6-ethyl-3-methyl-8-oxopyrido[2,3-b]pyrazin-5(8H)-yl)acetamide]
pEC50 [1]: < 5.30
pIC50 [2]: 7.30 to 8.30

SMILES: CCc1c(N2CCN(C(=O)c3ncc4c(c3O)OCC4)CC2)c(=O)c2ncc(C)nc2n1CC(=O)Nc1ccc(C(F)(F)F)cc1Cl [I-68, N-(2-chloro-4-(trifluoromethyl)phenyl)-2-(6-ethyl-7-(4-(7-hydroxy-2,3-dihydrofuro[3,2-c]pyridine-6-carbonyl)piperazin-1-yl)-3-methyl-8-oxopyrido[2,3-b]pyrazin-5(8H)-yl)acetamide]
pEC50 [1]: < 5.30
pIC50 [2]: 7.30 to 8.30

SMILES: CCc1c(N2CCN(C(=O)c3ncc4c(c3O)CCO4)CC2)c(=O)c2ncc(C)nc2n1CC(=O)Nc1ccc(C(F)(F)F)cc1Cl [I-69, N-(2-chloro-4-(trifluoromethyl)phenyl)-2-(6-ethyl-7-(4-(4-hydroxy-2,3-dihydrofuro[2,3-c]pyridine-5-carbonyl)piperazin-1-yl)-3-methyl-8-oxopyrido[2,3-b]pyrazin-5(8H)-yl)acetamide]
pEC50 [1]: < 5.30
pIC50 [2]: 7.30 to 8.30

SMILES: CCc1c(N2CCN(C(=O)c3cccc4oc(=O)[nH]c34)CC2)c(=O)c2ncc(C)nc2n1CC(=O)Nc1ccc(C(F)(F)F)cc1Cl [I-70, N-(2-chloro-4-(trifluoromethyl)phenyl)-2-(6-ethyl-3-methyl-8-oxo-7-(4-(2-oxo-2,3-dihydrobenzo[d]oxazole-4-carbonyl)piperazin-1-yl)pyrido[2,3-b]pyrazin-5(8H)-yl)acetamide]
pEC50 [1]: < 5.30
pIC50 [2]: 7.30 to 8.30

SMILES: CCc1c(N2CCN(C(=O)c3c(O)ccc4nc[nH]c34)CC2)c(=O)c2ncc(C)nc2n1CC(=O)Nc1ccc(C(F)(F)F)cc1Cl [I-71, N-(2-chloro-4-(trifluoromethyl)phenyl)-2-(6-ethyl-7-(4-(6-hydroxy-1H-benzo[d]imidazole-7-carbonyl)piperazin-1-yl)-3-methyl-8-oxopyrido[2,3-b]pyrazin-5(8H)-yl)acetamide]
pEC50 [1]: < 5.30
pIC50 [2]: 7.30 to 8.30

SMILES: CCc1c(N2CCN(C(=O)c3ncnc(C)c3O)CC2)c(=O)c2nc(N3CCCC3)cnc2n1CC(=O)Nc1ccc(C(F)(F)F)cc1Cl [I-75, N-(2-chloro-4-(trifluoromethyl)phenyl)-2-(6-ethyl-7-(4-(5-hydroxy-6-methylpyrimidine-4-carbonyl)piperazin-1-yl)-8-oxo-2-(pyrrolidin-1-yl)pyrido[2,3-b]pyrazin-5(8H)-yl)acetamide]
pEC50 [1]: 5.70 to 6.30
pIC50 [2]: 7.30 to 8.30

SMILES: CCc1c(N2CCN(C(=O)c3nocc3O)CC2)c(=O)c2ncc(C)nc2n1CC(=O)Nc1ccc(C(F)(F)F)cc1Cl [I-77, N-(2-chloro-4-(trifluoromethyl)phenyl)-2-(6-ethyl-7-(4-(4-hydroxyisoxazole-3-carbonyl)piperazin-1-yl)-3-methyl-8-oxopyrido[2,3-b]pyrazin-5(8H)-yl)acetamide]
pEC50 [1]: < 5.30
pIC50 [2]: 7.30 to 8.30

SMILES: CCc1c(N2CCN(C(=O)c3ncnc(C)c3O)CC2)c(=O)c2nc(-c3cnn(C)c3)cnc2n1CC(=O)Nc1ccc(C(F)(F)F)cc1Cl [I-79, N-(2-chloro-4-(trifluoromethyl)phenyl)-2-(6-ethyl-7-(4-(5-hydroxy-6-methylpyrimidine-4-carbonyl)piperazin-1-yl)-2-(1-methyl-1H-pyrazol-4-yl)-8-oxopyrido[2,3-b]pyrazin-5(8H)-yl)acetamide]
pEC50 [1]: < 5.30
pIC50 [2]: 7.30 to 8.30

SMILES: CCc1c(N2CCN(C(=O)c3ncnc(C)c3O)CC2)c(=O)c2nc(C)cnc2n1CC(=O)Nc1ccc(C(F)(F)F)cc1Cl [I-80, N-(2-chloro-4-(trifluoromethyl)phenyl)-2-(6-ethyl-7-(4-(5-hydroxy-6-methylpyrimidine-4-carbonyl)piperazin-1-yl)-2-methyl-8-oxopyrido[2,3-b]pyrazin-5(8H)-yl)acetamide]
pEC50 [1]: < 5.30
pIC50 [2]: 7.30 to 8.30

SMILES: CCc1c(N2CCN(C(=O)c3ncnc(C)c3O)CC2)c(=O)c2nc(OC)cnc2n1CC(=O)Nc1ccc(C(F)(F)F)cc1Cl [I-81, N-(2-chloro-4-(trifluoromethyl)phenyl)-2-(6-ethyl-7-(4-(5-hydroxy-6-methylpyrimidine-4-carbonyl)piperazin-1-yl)-2-methoxy-8-oxopyrido[2,3-b]pyrazin-5(8H)-yl)acetamide]
pEC50 [1]: < 5.30
pIC50 [2]: 7.00 to 7.30

SMILES: CCc1c(N2CCN(C(=O)c3ncnc(C)c3O)CC2)c(=O)c2nc(C3=CCOCC3)cnc2n1CC(=O)Nc1ccc(C(F)(F)F)cc1Cl [I-82, N-(2-chloro-4-(trifluoromethyl)phenyl)-2-(2-(3,6-dihydro-2H-pyran-4-yl)-6-ethyl-7-(4-(5-hydroxy-6-methylpyrimidine-4-carbonyl)piperazin-1-yl)-8-oxopyrido[2,3-b]pyrazin-5(8H)-yl)acetamide]
pEC50 [1]: < 5.30
pIC50 [2]: 7.30 to 8.30

SMILES: CCc1c(N2CCN(C(=O)c3ncnc(C)c3O)CC2)c(=O)c2nc(C(C)(C)O)cnc2n1CC(=O)Nc1ccc(C(F)(F)F)cc1Cl [I-84, N-(2-chloro-4-(trifluoromethyl)phenyl)-2-(6-ethyl-7-(4-(5-hydroxy-6-methylpyrimidine-4-carbonyl)piperazin-1-yl)-2-(2-hydroxypropan-2-yl)-8-oxopyrido[2,3-b]pyrazin-5(8H)-yl)acetamide]
pEC50 [1]: < 5.30
pIC50 [2]: 7.00 to 7.30

SMILES: CCc1c(N2CCN(C(=O)c3ncnc(C)c3O)CC2)c(=O)c2nc(Br)cnc2n1CC(=O)Nc1ccc(C(F)(F)F)cc1Cl [I-86, 2-(2-bromo-6-ethyl-7-(4-(5-hydroxy-6-methylpyrimidine-4-carbonyl)piperazin-1-yl)-8-oxopyrido[2,3-b]pyrazin-5(8H)-yl)-N-(2-chloro-4-(trifluoromethyl)phenyl)acetamide]
pEC50 [1]: 5.30 to 5.70
pIC50 [2]: 7.30 to 8.30
